Assay results from US10597388B2, “Pyridazinone herbicides” (FMC CORPORATION, priority 2014, dated 2020).

How the values were obtained:
Experiment in all cases: Test D controlled growth environment herbicide test, pre- and postemergence
Format in all cases: in vivo
[1] = tested on: barley, winter (winter barley, Hordeum vulgare)
Summary of the method: (§1)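 Species sown in silt loam and sprayed preemergence, or grown in peat-based medium to 2–18 cm (1- to 4-leaf stage) and sprayed postemergence, with compounds in non-phytotoxic solvent plus surfactant. Visual injury scored versus controls after 14–21 d in a controlled environment, 0 (no effect) to 100 (complete control).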

[2] = tested on: lambsquarters (Chenopodium album)
Summary of the method: as §1

[3] = tested on: bluegrass (annual bluegrass, Poa annua)
Summary of the method: as §1

[4] = tested on: bromegrass, downy (downy bromegrass, Bromus tectorum)
Summary of the method: as §1

[5] = tested on: galium (catchweed bedstraw, Galium aparine)
Summary of the method: as §1

[6] = tested on: mustard, wild (wild mustard, Sinapis arvensis)
Summary of the method: as §1

[7] = tested on: foxtail, green (green foxtail, Setaria viridis)
Summary of the method: as §1

kochia (Kochia scoparia) = tested on: kochia (Kochia scoparia)
Summary of the method: as §1

[8] = tested on: chamomile (scentless chamomile, Matricaria inodora)
Summary of the method: as §1

[9] = tested on: speedwell (bird's-eye speedwell, Veronica persica)
Summary of the method: as §1

[10] = tested on: canarygrass (Phalaris minor)
Summary of the method: as §1

[11] = tested on: barley, spring (spring barley, Hordeum vulgare)
Summary of the method: as §1

[12] = tested on: oat, wild (wild oat, Avena fatua)
Summary of the method: as §1

[13] = Postemergence, 31 g ai/ha, scale 0 to 100 (0 no effect, 100 complete control)
[14] = Postemergence, 125 g ai/ha, visual rating on scale 0 (no effect) to 100 (complete control), 14 to 21 d
[15] = Postemergence, 250 g ai/ha, scale 0 to 100 (0 no effect, 100 complete control)
[16] = Preemergence, 62 g ai/ha, scale 0 to 100 (0 no effect, 100 complete control)
[17] = Preemergence, 125 g ai/ha, scale 0 to 100 (0 no effect, 100 complete control)
[18] = Preemergence, 250 g ai/ha, scale 0 to 100 (0 no effect, 100 complete control)
[19] = postemergence, 62 g ai/ha, scale 0 to 100, 0 no effect, 100 complete control

## CC(=O)Oc1c(C)nn(C)c(=O)c1-c1c(C)sc2c(C)cc(C)cc12 [Compound 27]
[1]; [13]
  Plant response rating, Barley, Winter: 0
[1]; [14]
  Plant response rating, Barley, Winter: 5
[1]; [15]
  Plant response rating, Barley, Winter: 5
[1]; Preemergence, 31 g ai/ha
  Plant response rating (scale of 0 to 100), Barley, Winter: 0
[1]; [16]
  Plant response rating, Barley, Winter: 0
[1]; [17]
  Plant response rating, Barley, Winter: 10
[1]; [18]
  Barley, Winter plant response rating: 15
[1]; [19]
  Plant response rating, Barley, Winter: 0
[2]; [13]
  Lambsquarters plant response rating: 80
[2]; [14]
  Plant response rating, Lambsquarters: 85
[2]; [15]
  Plant response rating, Lambsquarters: 85
[2]; Preemergence, 31 g ai/ha
  Plant response rating (scale of 0 to 100), Lambsquarters: 100
[2]; [16]
  Plant response rating, Lambsquarters: 100
[2]; [17]
  Plant response rating, Lambsquarters: 100
[2]; [18]
  Plant response rating, Lambsquarters: 100
[2]; [19]
  Plant response rating, Lambsquarters: 85
[3]; [13]
  Bluegrass plant response rating: 15
[3]; [14]
  Plant response rating, Bluegrass: 30
[3]; [15]
  Plant response rating, Bluegrass: 40
[3]; Preemergence, 31 g ai/ha
  Plant response rating (scale of 0 to 100), Bluegrass: 25
[3]; [16]
  Plant response rating, Bluegrass: 35
[3]; [17]
  Plant response rating, Bluegrass: 70
[3]; [18]
  Bluegrass plant response rating: 80
[3]; [19]
  Plant response rating, Bluegrass: 25
[4]; [13]
  Bromegrass, Downy plant response rating: 15
[4]; [14]
  Plant response rating, Bromegrass, Downy: 55
[4]; [15]
  Plant response rating, Bromegrass, Downy: 70
[4]; Preemergence, 31 g ai/ha
  Plant response rating (scale of 0 to 100), Bromegrass, Downy: 35
[4]; [16]
  Plant response rating, Bromegrass, Downy: 55
[4]; [17]
  Plant response rating, Bromegrass, Downy: 85
[4]; [18]
  Plant response rating, Bromegrass, Downy: 85
[4]; [19]
  Plant response rating, Bromegrass, Downy: 25
[5]; [13]
  Galium plant response rating: 100
[5]; [14]
  Plant response rating, Galium: 100
[5]; [15]
  Plant response rating, Galium: 100
[5]; Preemergence, 31 g ai/ha
  Plant response rating (scale of 0 to 100), Galium: 60
[5]; [16]
  Plant response rating, Galium: 70
[5]; [17]
  Plant response rating, Galium: 85
[5]; [18]
  Plant response rating, Galium: 100
[5]; [19]
  Plant response rating, Galium: 100
[6]; [13]
  Mustard, Wild plant response rating: 15
[6]; [14]
  Plant response rating, Mustard, Wild: 30
[6]; [15]
  Plant response rating, Mustard, Wild: 75
[6]; Preemergence, 31 g ai/ha
  Plant response rating (scale of 0 to 100), Mustard, Wild: 40
[6]; [16]
  Plant response rating, Mustard, Wild: 40
[6]; [17]
  Plant response rating, Mustard, Wild: 45
[6]; [18]
  Plant response rating, Mustard, Wild: 65
[6]; [19]
  Plant response rating, Mustard, Wild: 40
[7]; [13]
  Foxtail, Green plant response rating: 70
[7]; [14]
  Plant response rating, Foxtail, Green: 80
[7]; [15]
  Plant response rating, Foxtail, Green: 80
[7]; Preemergence, 31 g ai/ha
  Plant response rating (scale of 0 to 100), Foxtail, Green: 95
[7]; [16]
  Plant response rating, Foxtail, Green: 95
[7]; [17]
  Plant response rating, Foxtail, Green: 100
[7]; [18]
  Plant response rating, Foxtail, Green: 100
[7]; [19]
  Plant response rating, Foxtail, Green: 80
Kochia (Kochia scoparia); [13]
  Kochia plant response rating: 45
Kochia (Kochia scoparia); [14]
  Plant response rating, Kochia: 55
Kochia (Kochia scoparia); [15]
  Plant response rating, Kochia: 75
Kochia (Kochia scoparia); Preemergence, 31 g ai/ha
  Plant response rating (scale of 0 to 100), Kochia: 0
Kochia (Kochia scoparia); [16]
  Plant response rating, Kochia: 20
Kochia (Kochia scoparia); [17]
  Plant response rating, Kochia: 30
Kochia (Kochia scoparia); [18]
  Plant response rating, Kochia: 60
Kochia (Kochia scoparia); [19]
  Plant response rating, Kochia: 55
[8]; [13]
  Chamomile plant response rating: 80
[8]; [14]
  Plant response rating, Chamomile: 95
[8]; [15]
  Plant response rating, Chamomile: 100
[8]; Preemergence, 31 g ai/ha
  Plant response rating (scale of 0 to 100), Chamomile: 100
[8]; [16]
  Plant response rating, Chamomile: 100
[8]; [17]
  Plant response rating, Chamomile: 100
[8]; [18]
  Plant response rating, Chamomile: 100
[8]; [19]
  Plant response rating, Chamomile: 90
[9]; [13]
  Speedwell plant response rating: 35
[9]; [14]
  Plant response rating, Speedwell: 100
[9]; [15]
  Plant response rating, Speedwell: 100
[9]; Preemergence, 31 g ai/ha
  Plant response rating (scale of 0 to 100), Speedwell: 75
[9]; [16]
  Plant response rating, Speedwell: 100
[9]; [17]
  Plant response rating, Speedwell: 100
[9]; [18]
  Plant response rating, Speedwell: 100
[9]; [19]
  Plant response rating, Speedwell: 70
[10]; [13]
  Canarygrass plant response rating: 75
[10]; [14]
  Plant response rating, Canarygrass: 85
[10]; [15]
  Plant response rating, Canarygrass: 90
[10]; Preemergence, 31 g ai/ha
  Plant response rating (scale of 0 to 100), Canarygrass: 85
[10]; [16]
  Plant response rating, Canarygrass: 95
[10]; [17]
  Plant response rating, Canarygrass: 100
[10]; [18]
  Plant response rating, Canarygrass: 100
[10]; [19]
  Plant response rating, Canarygrass: 80
[11]; [13]
  Plant response rating, Barley, Spring: 0
[11]; [14]
  Plant response rating, Barley, Spring: 5
[11]; [15]
  Plant response rating, Barley, Spring: 10
[11]; Preemergence, 31 g ai/ha
  Plant response rating (scale of 0 to 100), Barley, Spring: 0
[11]; [16]
  Plant response rating, Barley, Spring: 0
[11]; [17]
  Plant response rating, Barley, Spring: 0
[11]; [18]
  Barley, Spring plant response rating: 0
[11]; [19]
  Plant response rating, Barley, Spring: 0
[12]; [13]
  Oat, Wild plant response rating: 75
[12]; [14]
  Plant response rating, Oat, Wild: 90
[12]; [15]
  Plant response rating, Oat, Wild: 98
[12]; Preemergence, 31 g ai/ha
  Plant response rating (scale of 0 to 100), Oat, Wild: 85
[12]; [16]
  Plant response rating, Oat, Wild: 85
[12]; [17]
  Plant response rating, Oat, Wild: 90
[12]; [18]
  Plant response rating, Oat, Wild: 95
[12]; [19]
  Plant response rating, Oat, Wild: 85
